Experimental data: US20090117199A1, “Method of treatment of cancer” (priority 1998, published 2009)
Like-named read-outs stand apart in the source and are kept apart here.

Legend:
[1] = tested on: A375 human melanoma xenograft tumors; settings: for #CR + #PR/SD (%): number (percent); for MST ± SEM (mean survival time to 2.0 g tumor): single injection
Experimental: The effects of a single IL injection of RB into A375 human melanoma xenograft tumors growing in nude mice were evaluated.
Chemoablation studies were conducted using female nu/nu mice (Harlan), 6-9 weeks of age and approximately 20 g at study Day 1.
Each mouse in Chemoablation study groups received a single subcutaneous implantation of the A375 melanoma tumor line. This consisted of implantation of either (1) a 1 mm^3 fragment of tissue in the flank or (2) subcutaneous injection of 100 μL of an A375 cell suspension into the flank. Treatment was initiated when the implanted tumor reached a size of approximately 70 mg (where tumor weight, in mg, was estimated using the formula (w^2×l)/2 in which w is width, and l is length in mm of the tumor).
RB (Aldrich product No. W1843) in isotonic saline; concentrations of 0.1% RB, 1%, RB, 1%, RB, 6% RB and 10% RB (w/v) was studied. Saline was used for the injection control group.
Treatment Plan: Mice were divided into treatment groups on study Day 1. RB treatment groups received a single IL injection of 0.1 mL RB in saline; the injection control group received a single IL injection of 0.1 mL saline. Growth control and sham treatment groups received no injection. All dosing was performed on Study Day 1. Follow up examination of the mice was conducted at regular intervals, and the test terminated on either Study day 65 or Study Day 85.
Each animal was euthanized when its A375 neoplasm reached a size of 2.0 g.
Treatment was assessed for occurrence of complete tumor regression (CR), partial tumor regression (PR) or stable disease (SD). The duration of CR, PR, or SD response was recorded throughout each study.
The Log-Rank test was used to determine the statistical significance of any difference in survival experienced between treatment and control groups. […] SigmaStat 3.0 (SPSS Inc) was used for all statistical analysis. Graphs were prepared using sigmaStat 3.0 or sigma Plot 2000 (SPSS Inc.) ver 6.00.

[2] = Partitioning coefficient of Rose Bengal, saline/1-octanol, effect of electrolyte concentration; settings: 0.5 mg/mL RB, approx. 1 day; for Kp: Partitioning coefficient (Kp)
Description: After mixing, the agent was allowed to partition for approximately 1 day. Based on absorbance measurements at 550 nm for the aqueous phase and 564 nm for the organic phase, the percentage of agent in each phase was obtained.

[3] = tested on: spontaneous breast tumors; assay: Tumor response to IL 10% RB in saline, report 020626.01C; type: in vivo, Neu+/+ x (1988A2Kb x Neu+/+) mice; settings: 10% RB IL 50 μL/tumor Qd × 1
[4] = tested on: cancer cells; settings: essentially excluded from normal cells; cited from earlier work

O=C([O-])c1c(Cl)c(Cl)c(Cl)c(Cl)c1-c1c2cc(I)c(=O)c(I)c-2oc2c(I)c([O-])c(I)cc12.[Na+].[Na+] [RB, 4,5,6,7-Tetrachloro-2′,4′,5′,7′-tetraiodofluorescein]
tumor growth response ([1]; 0.1% RB (Group C)): qualitatively and statistically equivalent to the control groups | #CR ([1]; 0.1% RB, 5 mg/kg, IL, N=5): 0 | #PR/SD ([1]; 0.1% RB, 5 mg/kg, IL, N=5): 0 | #CR + #PR/SD (%) ([1]; 0.1% RB, 5 mg/kg, IL, N=5): 0 (0) | MST ± SEM (mean survival time to 2.0 g tumor) ([1]; 0.1% RB, 5 mg/kg, IL, N=5): 27.0 ± 3.0 (5) days | clinical response of tumors ([1]; 1% RB and higher, large fraction of tumors): localized tumor necrosis with rapid eschar formation | #CR ([1]; 1% RB, 50 mg/kg, IL, N=12): 1 | #PR/SD ([1]; 1% RB, 50 mg/kg, IL, N=12): 1 | #CR + #PR/SD (%) ([1]; 1% RB, 50 mg/kg, IL, N=12): 2 (17) | MST ± SEM (mean survival time to 2.0 g tumor) ([1]; 1% RB, 50 mg/kg, IL, N=12): 33.1 ± 4.5 (10) days | composite response (damage+necrosis/2) and mean severity of necrosis of tumor tissue ([1]; 1%, 3% and 6% RB treatment groups): elevated | #CR ([1]; 3% RB, 150 mg/kg, IL, N=17): 3 | #PR/SD ([1]; 3% RB, 150 mg/kg, IL, N=17): 3 | #CR + #PR/SD (%) ([1]; 3% RB, 150 mg/kg, IL, N=17): 6 (35) | MST ± SEM (mean survival time to 2.0 g tumor) ([1]; 3% RB, 150 mg/kg, IL, N=17): 50.0 ± 7.0 (11) days | survival versus growth controls ([1]; 6% RB (N=6), increased survival): not statistically different | #CR ([1]; 6% RB, 300 mg/kg, IL, N=6): 1 | #PR/SD ([1]; 6% RB, 300 mg/kg, IL, N=6): 0 | #CR + #PR/SD (%) ([1]; 6% RB, 300 mg/kg, IL, N=6): 1 (17) | MST ± SEM (mean survival time to 2.0 g tumor) ([1]; 6% RB, 300 mg/kg, IL, N=6): 35.4 ± 6.6 (5) days | #CR ([1]; 10% RB, 500 mg/kg, IL, N=5): 1 | #PR/SD ([1]; 10% RB, 500 mg/kg, IL, N=5): 1 | #CR + #PR/SD (%) ([1]; 10% RB, 500 mg/kg, IL, N=5): 2 (40) | MST ± SEM (mean survival time to 2.0 g tumor) ([1]; 10% RB, 500 mg/kg, IL, N=5): 52.2 ± 14.9 (3) days | systemic toxicity ([1]; all tumour treatments, IL): well-tolerated | tolerability of intralesional injection ([1]; concentrations up to 10% (500 mg/kg)): well tolerated by all animals | residual RB in perilesional tissue ([1]; terminal sacrifice): no residual RB | histology of tumor and peritumor tissue ([1]; terminal sacrifice, no dose-related trends): minimal perilesional inflammation and damage | % Partitioning in Octanol ([2]; 0.00% saline): 75.79 ± 1.75% | % Partitioning in Octanol ([2]; 0.50% saline): 95.13 ± 1.43% | % Partitioning in Octanol ([2]; 0.90% saline): 98.52 ± 0.26% | % Partitioning in Octanol ([2]; 2.50% saline): 99.35 ± 0.28% | Kp ([2]; 0.00% saline): 3.14 ± 0.29 | Kp ([2]; 0.50% saline): 20.8 ± 6.77 | Kp ([2]; 0.90% saline): 68.2 ± 4.43 | Kp ([2]; 2.50% saline): 215 ± 105 | Kp ([2]; […] saline): 44.2 ± 5.52 | % Partitioning in Octanol ([2]; […] saline): 97.77 ± 0.25% | tumor response [3]: IL RB ablated spontaneous breast | uptake into cancer cells versus normal cells [4]: preferential uptake into cancer cells
